# Laboratory results as given in patent US10035805B2, “Tricyclic triazolic compounds” (LABORATORIOS DEL DR. ESTEVE S.A., priority 2014, dated 2018).
# Structures can show the parent of a compound that is named as a salt.
# Target: T1, sigma-1 receptor (Cavia porcellus, UniProt Q60492)
# T1 construct: Guinea pig brains were homogenized in 10 vols; (w/v) of Tris-HCl 50 mM 0.32 M sucrose; from tissue; host or cells: guinea pig brain membranes
# Assay: Sigma-1 receptor radioligand binding assay with [3H]-(+)-pentazocine in guinea pig brain membranes
# Details: radioligand [3H]-(+)-pentazocine at 5.0 nM, 150 min at 37° C., nonspecific binding with 1 μM haloperidol
# Protocol: Brain membrane preparation and binding assays for the al-receptor were performed as described (DeHaven-Hudkins, D. L., L. C. Fleissner, and F. Y. Ford-Rice, 1992, Characterization of the binding of [^3H](+)pentazocine to a recognition sites in guinea pig brain, Eur. J. Pharmacol. 227, 371-378) with some modifications. Guinea pig brains were homogenized in 10 vols. (w/v) of Tris-HCl 50 mM 0.32 M sucrose, pH 7.4, with a Kinematica Polytron PT 3000 at 15000 r.p.m. for 30 s. The homogenate was centrifuged at 1000 g for 10 min at 4° C. and the supernatants collected and centrifuged again at 48000 g for 15 min at 4° C. The pellet was resuspended in 10 volumes of Tris-HCl buffer (50 mM, pH 7.4), incubated at 37° C. for 30 min, and centrifuged at 48000 g for 20 min at 4° C. Following this, the pellet was resuspended in fresh Tris-HCl buffer (50 mM, pH 7.4) and stored on ice until use.
# The radioligand used was [^3H]-(+)-pentazocine at 5.0 nM and the final volume was 200 μl. The incubation was initiated with the addition of 100 μl of membrane at a final tissue concentration of approximately 5 mg tissue net weight/mL and the incubation time was 150 m. at 37° C. After incubation, the membranes were collected onto pretreated glass fiber filterplate (MultiScreen-FC, Millipore), with polyethylenimine 0.1%. The filters were washed two times with 200 μl of washing buffer (50 mM Tris Cl, pH=7.4) and then 25 μl of Ecoscint H liquid scintillation cocktail were added. Microplates were allowed to set for several hours and then quantified by liquid scintillation spectrophotometry (1450 Microbeta, Wallac). Nonspecific binding was determined with 1 μM haloperidol.
# T1 sequence (Q60492 whole entry): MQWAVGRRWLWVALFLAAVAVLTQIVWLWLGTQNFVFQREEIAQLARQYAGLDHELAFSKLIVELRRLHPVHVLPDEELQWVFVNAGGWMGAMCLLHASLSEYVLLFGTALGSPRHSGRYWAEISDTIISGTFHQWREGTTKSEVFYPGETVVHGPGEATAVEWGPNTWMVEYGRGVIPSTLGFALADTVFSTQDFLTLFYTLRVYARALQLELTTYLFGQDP
row,Compound,Ki [µM]
1,"CCCCCN1C[C@@H]2NCc3c(-c4ccccc4)nnn3[C@@H]2C1 (racemic) [Example 14, (rac) (5a,8a-cis)-7-pentyl-3-phenyl-5,5a,6,7,8,8a-hexahydro-4H-pyrrolo[3,4-e][1,2,3]triazolo[1,5-a]pyrazine]",< 0.1
2,"CCCN1Cc2c(-c3ccccc3)nnn2[C@@H]2CN(Cc3ccccc3)C[C@@H]21 (racemic) [Example 13, (rac) (5a,8a-cis)-7-benzyl-3-phenyl-5-propyl-5,5a,6,7,8,8a-hexahydro-4H-pyrrolo[3,4-e][1,2,3]triazolo[1,5-a]pyrazine]",0.1 to 0.5
3,"O=C1N[C@H]2CN(Cc3ccccc3)C[C@H]2n2nnc(-c3ccccc3)c21 (racemic) [Example 2, (rac)-(5a,8a-cis)-7-benzyl-3-phenyl-5,5a,6,7,8,8a-hexahydro-4H-pyrrolo[3,4-e][1,2,3]triazolo[1,5-a]pyrazin-4-one]",> 0.5
4,"c1ccc(CN2C[C@@H]3NCc4c(-c5ccccc5)nnn4[C@@H]3C2)cc1 [Example 15, (5aS,8aR)-7-benzyl-3-phenyl-5,5a,6,7,8,8a-hexahydro-4H-pyrrolo[3,4-e][1,2,3]triazolo[1,5-a]pyrazine]",< 0.1
5,"CN1Cc2c(-c3ccccc3)nnn2[C@@H]2CN(Cc3ccccc3)C[C@H]21 (racemic) [Example 16, (rac) (5a,8a-trans)-7-benzyl-5-methyl-3-phenyl-5,5a,6,7,8,8a-hexahydro-4H-pyrrolo[3,4-e][1,2,3]triazolo[1,5-a]pyrazine hydrochloride]",< 0.1
6,"CC(C)(C)OC(=O)N1Cc2c(-c3ccccc3)nnn2[C@@H]2CN(Cc3ccc(F)cc3)C[C@H]21 (racemic) [Example 7, (rac)-(5a,8a-trans)-tert-butyl-7-(4-fluorobenzyl)-3-phenyl-6,7,8,8a-tetrahydro-4H-pyrrolo[3,4-e][1,2,3]triazolo[1,5-a]pyrazine-5(5aH)-carboxylate]",> 0.5
7,"CN1Cc2c(-c3ccccc3)nnn2[C@@H]2CN(Cc3ccccc3)C[C@@H]21 (racemic) [Example 12, (rac) (5a,8a-cis)-7-benzyl-5-methyl-3-phenyl-5,5a,6,7,8,8a-hexahydro-4H-pyrrolo[3,4-e][1,2,3]triazolo[1,5-a]pyrazine]",< 0.1
8,"CCCCCN1C[C@@H]2[C@@H](C1)n1nnc(-c3ccccc3)c1CN2CCC (racemic) [Example 11, (rac) (5a,8a-trans)-7-pentyl-3-phenyl-5-propyl-5,5a,6,7,8,8a-hexahydro-4H-pyrrolo[3,4-e][1,2,3]triazolo[1,5-a]pyrazine hydrochloride]",< 0.1
9,"Fc1ccc(CN2C[C@@H]3[C@@H](C2)NCc2c(-c4ccccc4)nnn23)cc1 (racemic) [Example 8, (rac) (5a,8a-trans)-7-(4-fluorobenzyl)-3-phenyl-5,5a,6,7,8,8a-hexahydro-4H-pyrrolo[3,4-e][1,2,3]triazolo[1,5-a]pyrazine hydrochloride]",< 0.1
10,"CCCN1Cc2c(-c3ccccc3)nnn2[C@@H]2CN(Cc3ccccc3)C[C@H]21 (racemic) [Example 9, (rac) (5a,8a-trans)-7-benzyl-3-phenyl-5-propyl-5,5a,6,7,8,8a-hexahydro-4H-pyrrolo[3,4-e][1,2,3]triazolo[1,5-a]pyrazine hydrochloride]",< 0.1

# More lines, now with the values ahead:
row,Ki [µM],Compound
1,< 0.1,"c1ccc(CN2C[C@@H]3[C@H](C2)N(CC2CC2)CCc2c(-c4ccccc4)nnn23)cc1 (racemic) [Example 32, (rac) (6a,9a-cis)-8-benzyl-6-(cyclopropylmethyl)-3-phenyl-4,5,6,6a,7,8,9,9a-octahydropyrrolo[3,4-b][1,2,3]triazolo[1,5-d][1,4]diazepine hydrochloride]"
2,< 0.1,"Clc1ccc(CN2C[C@@H]3[C@@H](C2)NCc2c(-c4ccccc4)nnn23)cc1 [Example 25, (5aR,8aR)-7-(4-chlorobenzyl)-3-phenyl-5,5a,6,7,8,8a-hexahydro-4H-pyrrolo[3,4-e][1,2,3]triazolo[1,5-a]pyrazine hydrochloride]"
3,< 0.1,"c1ccc(CN2C[C@@H]3[C@@H](C2)NCc2c(-c4ccccc4)nnn23)cc1 [Example 22, (5aR,8aR)-7-benzyl-3-phenyl-5,5a,6,7,8,8a-hexahydro-4H-pyrrolo[3,4-e][1,2,3]triazolo[1,5-a]pyrazine hydrochloride]"
4,< 0.1,"Fc1ccc(CN2C[C@@H]3[C@@H](C2)NCc2c(-c4ccccc4)nnn23)cc1 [Example 24, (5aR,8aR)-7-(4-fluorobenzyl)-3-phenyl-5,5a,6,7,8,8a-hexahydro-4H-pyrrolo[3,4-e][1,2,3]triazolo[1,5-a]pyrazine hydrochloride]"
5,0.1 to 0.5,"c1ccc(CN2C[C@H]3NCCc4c(-c5ccccc5)nnn4[C@H]3C2)cc1 [Example 34, (6aR,9aS)-8-benzyl-3-phenyl-4,5,6,6a,7,8,9,9a-octahydropyrrolo[3,4-b][1,2,3]triazolo[1,5-d][1,4]diazepine hydrochloride]"
6,0.1 to 0.5,"CCC(=O)N1CCc2c(-c3ccccc3)nnn2[C@@H]2CN(Cc3ccccc3)C[C@@H]21 (racemic) [Example 33, (rac) 1-((6a,9a-cis)-8-benzyl-3-phenyl-4,5,7,8,9,9a-hexahydropyrrolo[3,4-b][1,2,3]triazolo[1,5-d][1,4]diazepin-6(6aH)-yl)propan-1-one hydrochloride]"
7,0.1 to 0.5,"c1ccc(-c2nnn3c2CN[C@@H]2CN(CC4CC4)C[C@H]23)cc1 (racemic) [Example 18, (rac) (5a,8a-trans)-7-(cyclopropyl-methyl)-3-phenyl-5,5a,6,7,8,8a-hexahydro-4H-pyrrolo[3,4-e][1,2,3]triazolo[1,5-a]pyrazine hydrochloride]"
8,> 0.5,"c1ccc(-c2nnn3c2CN[C@@H]2CN(C4CCOCC4)C[C@H]23)cc1 (racemic) [Example 19, (rac) (5a,8a-trans)-3-phenyl-7-(tetrahydro-2H-pyran-4-yl)-5,5a,6,7,8,8a-hexahydro-4H-pyrrolo[3,4-e][1,2,3]triazolo[1,5-a]pyrazine hydrochloride]"
9,0.1 to 0.5,"c1ccc(-c2nnn3c2CN[C@@H]2CN(CC4CCOCC4)C[C@H]23)cc1 [Example 27, (5aR,8aR)-3-phenyl-7-((tetrahydro-2H-pyran-4-yl)methyl)-5,5a,6,7,8,8a-hexahydro-4H-pyrrolo[3,4-e][1,2,3]triazolo[1,5-a]pyrazine hydrochloride]"
10,> 0.5,"Fc1ccc(CN2C[C@@H]3NCc4c(-c5ccccc5)nnn4[C@H]3C2)cc1 [Example 23, (5aS,8aS)-7-(4-fluorobenzyl)-3-phenyl-5,5a,6,7,8,8a-hexahydro-4H-pyrrolo[3,4-e][1,2,3]triazolo[1,5-a]pyrazine hydrochloride]"
11,> 0.5,"c1ccc(CN2C[C@@H]3NCc4c(-c5ccccc5)nnn4[C@H]3C2)cc1 [Example 21, (5aS,8aS)-7-benzyl-3-phenyl-5,5a,6,7,8,8a-hexahydro-4H-pyrrolo[3,4-e][1,2,3]triazolo[1,5-a]pyrazine hydrochloride]"
12,> 0.5,"CN1C(=O)c2c(-c3ccccc3)nnn2[C@@H]2CN(Cc3ccccc3)C[C@@H]21 (racemic) [Example 37, (rac)-(5a,8a-cis)-7-benzyl-5-methyl-3-phenyl-5,5a,6,7,8,8a-hexahydro-4H-pyrrolo[3,4-e][1,2,3]triazolo[1,5-a]pyrazin-4-one]"
13,< 0.1,"c1ccc(CN2C[C@@H]3NCCc4c(-c5ccccc5)nnn4[C@@H]3C2)cc1 [Example 35, (6aS,9aR)-8-benzyl-3-phenyl-4,5,6,6a,7,8,9,9a-octahydropyrrolo[3,4-b][1,2,3]triazolo [1,5-d][1,4]-diazepine hydrochloride]"
